From PMC6264278, “Corydaline Inhibits Multiple Cytochrome P450 and UDP-Glucuronosyltransferase Enzyme Activities in Human Liver Microsomes” (Molecules, 2011)

Biological target: T1, UGT1A4 (Homo sapiens, UniProt P22310)
T1 construct: using pooled human liver microsomes; tissue BD Gentest Co. H161; host or cells: pooled human liver microsomes
T1 sequence (P22310 29-534): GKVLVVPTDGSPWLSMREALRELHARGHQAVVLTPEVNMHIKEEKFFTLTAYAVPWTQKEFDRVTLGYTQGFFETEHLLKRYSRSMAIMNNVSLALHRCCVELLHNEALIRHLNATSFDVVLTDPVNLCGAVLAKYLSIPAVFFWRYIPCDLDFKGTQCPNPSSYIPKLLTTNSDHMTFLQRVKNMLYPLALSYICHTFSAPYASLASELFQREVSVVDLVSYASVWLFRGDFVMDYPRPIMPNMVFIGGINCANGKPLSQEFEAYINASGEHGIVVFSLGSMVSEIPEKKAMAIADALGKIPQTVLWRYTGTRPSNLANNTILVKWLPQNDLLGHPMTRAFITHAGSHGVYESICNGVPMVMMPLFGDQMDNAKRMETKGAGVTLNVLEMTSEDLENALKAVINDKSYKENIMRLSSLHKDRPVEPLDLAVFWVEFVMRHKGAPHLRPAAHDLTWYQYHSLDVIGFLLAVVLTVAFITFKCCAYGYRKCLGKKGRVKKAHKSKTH
Assay: UGT1A4 trifluoperazine N-glucuronidation inhibition in pooled human liver microsomes
Assay type: in vitro ADME
Conditions: pooled human liver microsomes (H161), 5 μM trifluoperazine, no inhibition at 1,000 μM of corydaline
Procedure: The inhibitory potencies (IC50 values) of corydaline were also determined with UGT assays in the presence and absence of corydaline (final concentrations of 1–1,000 μM with acetonitrile concentration less than 0.5% v/v) using pooled human liver microsomes. 17β-Estradiol 3-glucuronidation, trifluoperazine glucuronidation, propofol glucuronidation, and azidothymidine glucuronidation activities were determined as probe activities for UGT1A1, UGT1A4, UGT1A9, and UGT2B7, respectively, using LC/MS/MS. Incubation mixtures were prepared in a total volume of 100 μL, as follows: Pooled human liver microsomes (0.2 mg/mL for 17β-estradiol, trifluoperazine and azidothymidine; 0.1 mg/mL for propofol), 2 mM UDPGA, 25 μg/mL alamethicin, 10 mM MgCl2, 50 mM tris buffer (pH 7.4), UGT-isoform specific probe substrate (20 μM 17β-estradiol for UGT1A1, 5 μM trifluoperazine for UGT1A4, 10 μM propofol for UGT1A9, or 100 μM azidothymidine for UGT2B7), and various concentrations of corydaline (1−1000 μM). […]
Glucuronides produced from UGT isoform-specific substrates were respectively determined by LC/MS/MS. […] Quantification was performed by SRM of the [M+H]^+ ion for trifluoperazine glucuronide and azidothymidine glucuronide or [M−H]^− for 17β-estradiol 3-glucuronide and propofol glucuronide and the related product ion for each metabolite. […]

## COc1cc2c(cc1OC)C1C(C)c3ccc(OC)c(OC)c3CN1CC2 (centres unmarked) [Corydaline, 2,3,9,10-tetramethoxy-13-methyl-5,8,13,13a-tetrahydro-6H-isoquino[3,2-a]isoquinoline]
  IC50, UGT1A4 trifluoperazine N-glucuronidation: not inhibited
Listed as corydaline
  IC50, UGT1A4 trifluoperazine N-glucuronidation: No inhibition *
